In patent US9096492B2, “Hydrated N-fullerene amino acids, method for producing the latter, and pharmaceutical compositions on the basis thereof” (priority 2011, dated 2015):
Read-outs that look alike come from different tables or passages of the source.

How the values were obtained:
solid Ehrlich carcinoma = experiment: Solid Ehrlich carcinoma in white mice, tumor size dynamics
[1] = rat, in vivo
[2] = tested on: A/Swine/1976/31 (H1N1) influenza virus; assay type: in vivo, mice; details: for Infectious virus titer (log10EID50/20 mg tissue): lung tissue
[3] = Chronic toxicity in rats: autopsy and weight coefficients of viscera; details: any of the tested doses; after the end of administration
[4] = tested on: A/Aichi/2/69 (H3N2) influenza virus; experiment: Induced influenza pneumonia in mice; details: for Average lifetime (days) / Death rate (%) / Percent death protection (%) / Survival (survivors/total): observation day 16
[5] = rat, in vivo; remark: listed apart in the source
[6] = intraperitoneally 100 mg/kg/day

N-fullerene tris(δ-aminocaproic acid) hydrate [Agent 1]
Tumor size (mm^3) (solid Ehrlich carcinoma; 100 mg/kg, day 8 post transplantation): 72.5 mm^3
Tumor size (mm^3) (solid Ehrlich carcinoma; 100 mg/kg, day 13 post transplantation): 544.3 mm^3
Tumor size (mm^3) (solid Ehrlich carcinoma; 100 mg/kg, day 17 post transplantation): 693.6 mm^3
Tumor size (mm^3) (solid Ehrlich carcinoma; 100 mg/kg, day 21 post transplantation): 1250.8 mm^3
Tumor size (mm^3) (solid Ehrlich carcinoma; 100 mg/kg, day 24 post transplantation): 1654.3 mm^3
Tumor size (mm^3) (solid Ehrlich carcinoma; 100 mg/kg, day 28 post transplantation): 2239.8 mm^3
Tumor size (mm^3) (solid Ehrlich carcinoma; 300 mg/kg, day 8 post transplantation): 72.7 mm^3
Tumor size (mm^3) (solid Ehrlich carcinoma; 300 mg/kg, day 13 post transplantation): 416.3 mm^3
Tumor size (mm^3) (solid Ehrlich carcinoma; 300 mg/kg, day 17 post transplantation): 1224.6 mm^3
Tumor size (mm^3) (solid Ehrlich carcinoma; 300 mg/kg, day 21 post transplantation): 1703.4 mm^3
Tumor size (mm^3) (solid Ehrlich carcinoma; 300 mg/kg, day 24 post transplantation): 2048.5 mm^3
Tumor size (mm^3) (solid Ehrlich carcinoma; 300 mg/kg, day 28 post transplantation): 2525.7 mm^3
induction of microscopic changes in organs [1]: the identified changes were not induced by the studied substance
Animals with changes, Number: Liver, Plethora of sinusoidal capillaries ([1]; 20 mg/kg): 5
Animals with changes, Number: Lung, Thickening of the interalveolar septa (total) ([1]; 20 mg/kg): 1
Average lifetime (LD) ([2]; 30 mg/kg, Summary dose, n=30): 10.6 days
Increase in LD ([2]; 30 mg/kg, Summary dose, n=30): 1.9 days
Mortality rate, % ([2]; 30 mg/kg, Summary dose, n=30): 56.7%
Number of survivors ([2]; 30 mg/kg, Summary dose, n=30): 13
Average lifetime (LD) ([2]; 30 mg/kg, virus 1 LD50, n=15): 12.3 days
Increase in LD ([2]; 30 mg/kg, virus 1 LD50, n=15): 1.7 days
Mortality rate, % ([2]; 30 mg/kg, virus 1 LD50, n=15): 40.0%
Number of survivors ([2]; 30 mg/kg, virus 1 LD50, n=15): 9
Average lifetime (LD) ([2]; 30 mg/kg, virus 10 LD50, n=15): 8.9 days
Increase in LD ([2]; 30 mg/kg, virus 10 LD50, n=15): 2.4 days
Mortality rate, % ([2]; 30 mg/kg, virus 10 LD50, n=15): 73.3%
Number of survivors ([2]; 30 mg/kg, virus 10 LD50, n=15): 4
Average lifetime (LD) ([2]; 100 mg/kg, Summary dose, n=28): 11.8 days
Increase in LD ([2]; 100 mg/kg, Summary dose, n=28): 3.1 days
Mortality rate, % ([2]; 100 mg/kg, Summary dose, n=28): 39.3%
Number of survivors ([2]; 100 mg/kg, Summary dose, n=28): 17
Average lifetime (LD) ([2]; 100 mg/kg, virus 1 LD50, n=15): 13.1 days
Increase in LD ([2]; 100 mg/kg, virus 1 LD50, n=15): 2.5 days
Mortality rate, % ([2]; 100 mg/kg, virus 1 LD50, n=15): 26.7%
Number of survivors ([2]; 100 mg/kg, virus 1 LD50, n=15): 11
Average lifetime (LD) ([2]; 100 mg/kg, virus 10 LD50, n=13): 10.3 days
Increase in LD ([2]; 100 mg/kg, virus 10 LD50, n=13): 3.7 days
Mortality rate, % ([2]; 100 mg/kg, virus 10 LD50, n=13): 53.8%
Number of survivors ([2]; 100 mg/kg, virus 10 LD50, n=13): 6
Average lifetime (LD) ([2]; 300 mg/kg, Summary dose, n=28): 12.3 days
Increase in LD ([2]; 300 mg/kg, Summary dose, n=28): 3.7 days
Mortality rate, % ([2]; 300 mg/kg, Summary dose, n=28): 32.1%
Number of survivors ([2]; 300 mg/kg, Summary dose, n=28): 19
Size of chronic post-influenza pneumonia sites (% of the total surface area of the lungs) ([2]; 300 mg/kg, the lower of the virus doses used, day 15): 25 ± 7%
Average lifetime (LD) ([2]; 300 mg/kg, virus 1 LD50, n=14): 13.6 days
Increase in LD ([2]; 300 mg/kg, virus 1 LD50, n=14): 3.0 days
Mortality rate, % ([2]; 300 mg/kg, virus 1 LD50, n=14): 21.4%
Number of survivors ([2]; 300 mg/kg, virus 1 LD50, n=14): 11
Average lifetime (LD) ([2]; 300 mg/kg, virus 10 LD50, n=14): 11.0 days
Increase in LD ([2]; 300 mg/kg, virus 10 LD50, n=14): 4.4 days
Mortality rate, % ([2]; 300 mg/kg, virus 10 LD50, n=14): 42.9%
Number of survivors ([2]; 300 mg/kg, virus 10 LD50, n=14): 8
Infectious virus titer (log10EID50/20 mg tissue) ([2]; 300 mg/kg, virus dose 1 LD50): 3.7 ± 0.3 log10EID50/20 mg tissue
Infectious virus titer (log10EID50/20 mg tissue) ([2]; 300 mg/kg, virus dose 5 LD50): 4.1 ± 0.2 log10EID50/20 mg tissue
autopsy finding at the injection site (skeletal muscles) [3]: a brownish color of muscle tissue, fascia, and fat layers was noticed
Percent body weight change ([4]; intramuscularly 50 mg/kg/day, day 1 post infection): +9%
Percent body weight change ([4]; intramuscularly 50 mg/kg/day, day 2 post infection): +14%
Percent body weight change ([4]; intramuscularly 50 mg/kg/day, day 3 post infection): +21%
Percent body weight change ([4]; intramuscularly 50 mg/kg/day, day 4 post infection): +26%
Percent body weight change ([4]; intramuscularly 50 mg/kg/day, day 5 post infection): +30%
Percent body weight change ([4]; intramuscularly 50 mg/kg/day, day 7 post infection): +27%
Percent body weight change ([4]; intramuscularly 50 mg/kg/day, day 9 post infection): +38%
Percent body weight change ([4]; intramuscularly 50 mg/kg/day, day 11 post infection): +64%
Percent body weight change ([4]; intramuscularly 50 mg/kg/day, day 13 post infection): +74%
Average lifetime (days) ([4]; intramuscularly 50 mg/kg/day): 12.4 (1-7 d., 1-9 d., 2-11 d) days
Death rate (%) ([4]; intramuscularly 50 mg/kg/day): 40%
Percent death protection (%) ([4]; intramuscularly 50 mg/kg/day): 50%
Survival (survivors/total) ([4]; intramuscularly 50 mg/kg/day): 6/10
Percent body weight change ([4]; intramuscularly 100 mg/kg/day, day 1 post infection): +13%
Percent body weight change ([4]; intramuscularly 100 mg/kg/day, day 2 post infection): +17%
Percent body weight change ([4]; intramuscularly 100 mg/kg/day, day 3 post infection): +23%
Percent body weight change ([4]; intramuscularly 100 mg/kg/day, day 4 post infection): +28%
Percent body weight change ([4]; intramuscularly 100 mg/kg/day, day 5 post infection): +31%
Percent body weight change ([4]; intramuscularly 100 mg/kg/day, day 7 post infection): +39%
Percent body weight change ([4]; intramuscularly 100 mg/kg/day, day 9 post infection): +65%
Percent body weight change ([4]; intramuscularly 100 mg/kg/day, day 11 post infection): +7%
Percent body weight change ([4]; intramuscularly 100 mg/kg/day, day 13 post infection): +82%
Average lifetime (days) ([4]; intramuscularly 100 mg/kg/day): 13.5 (1-8 d, 1-9 d) days
Death rate (%) ([4]; intramuscularly 100 mg/kg/day): 20%
Percent death protection (%) ([4]; intramuscularly 100 mg/kg/day): 70%
Survival (survivors/total) ([4]; intramuscularly 100 mg/kg/day): 8/10
Percent body weight change ([4]; intramuscularly 200 mg/kg/day, day 1 post infection): +11%
Percent body weight change ([4]; intramuscularly 200 mg/kg/day, day 2 post infection): +20%
Percent body weight change ([4]; intramuscularly 200 mg/kg/day, day 3 post infection): +26%
Percent body weight change ([4]; intramuscularly 200 mg/kg/day, day 4 post infection): +35%
Percent body weight change ([4]; intramuscularly 200 mg/kg/day, day 5 post infection): +39%
Percent body weight change ([4]; intramuscularly 200 mg/kg/day, day 7 post infection): +43%
Percent body weight change ([4]; intramuscularly 200 mg/kg/day, day 9 post infection): +51%
Percent body weight change ([4]; intramuscularly 200 mg/kg/day, day 11 post infection): +62%
Percent body weight change ([4]; intramuscularly 200 mg/kg/day, day 13 post infection): +70%
Average lifetime (days) ([4]; intramuscularly 200 mg/kg/day): 14.4 (1-10 d) days
Death rate (%) ([4]; intramuscularly 200 mg/kg/day): 10%
Percent death protection (%) ([4]; intramuscularly 200 mg/kg/day): 80%
Survival (survivors/total) ([4]; intramuscularly 200 mg/kg/day): 9/10
tolerability in infected mice ([4]; intraperitoneal, 200 mg/kg/day): toxic
Percent body weight change ([4]; intraperitoneally 50 mg/kg/day, day 1 post infection): +11%
Percent body weight change ([4]; intraperitoneally 50 mg/kg/day, day 2 post infection): +17%
Percent body weight change ([4]; intraperitoneally 50 mg/kg/day, day 3 post infection): +22%
Percent body weight change ([4]; intraperitoneally 50 mg/kg/day, day 4 post infection): +25%
Percent body weight change ([4]; intraperitoneally 50 mg/kg/day, day 5 post infection): +28%
Percent body weight change ([4]; intraperitoneally 50 mg/kg/day, day 7 post infection): +35%
Percent body weight change ([4]; intraperitoneally 50 mg/kg/day, day 9 post infection): +41%
Percent body weight change ([4]; intraperitoneally 50 mg/kg/day, day 11 post infection): +67%
Percent body weight change ([4]; intraperitoneally 50 mg/kg/day, day 13 post infection): +77%
Average lifetime (days) ([4]; intraperitoneally 50 mg/kg/day): 11.5 (1-5 d., 1-7 d., 3-11 d.) days
Death rate (%) ([4]; intraperitoneally 50 mg/kg/day): 50%
Percent death protection (%) ([4]; intraperitoneally 50 mg/kg/day): 40%
Survival (survivors/total) ([4]; intraperitoneally 50 mg/kg/day): 5/10
Percent body weight change ([4]; intraperitoneally 100 mg/kg/day, day 1 post infection): +9%
Percent body weight change ([4]; intraperitoneally 100 mg/kg/day, day 2 post infection): +15%
Percent body weight change ([4]; intraperitoneally 100 mg/kg/day, day 3 post infection): +19%
Percent body weight change ([4]; intraperitoneally 100 mg/kg/day, day 4 post infection): +21%
Percent body weight change ([4]; intraperitoneally 100 mg/kg/day, day 5 post infection): +21%
Percent body weight change ([4]; intraperitoneally 100 mg/kg/day, day 7 post infection): +27%
Percent body weight change ([4]; intraperitoneally 100 mg/kg/day, day 9 post infection): +37%
Percent body weight change ([4]; intraperitoneally 100 mg/kg/day, day 11 post infection): +50%
Percent body weight change ([4]; intraperitoneally 100 mg/kg/day, day 13 post infection): +82%
Average lifetime (days) [4, 6]: 11.0 (3-7 d., 1-8 d., 1-11 d) days
Death rate (%) [4, 6]: 50%
Percent death protection (%) [4, 6]: 40%
Survival (survivors/total) [4, 6]: 5/10
Percent body weight change ([4]; orally 100 mg/kg/day, day 1 post infection): +12%
Percent body weight change ([4]; orally 100 mg/kg/day, day 2 post infection): +17%
Percent body weight change ([4]; orally 100 mg/kg/day, day 3 post infection): +23%
Percent body weight change ([4]; orally 100 mg/kg/day, day 4 post infection): +25%
Percent body weight change ([4]; orally 100 mg/kg/day, day 5 post infection): +24%
Percent body weight change ([4]; orally 100 mg/kg/day, day 7 post infection): +21%
Percent body weight change ([4]; orally 100 mg/kg/day, day 9 post infection): +23%
Percent body weight change ([4]; orally 100 mg/kg/day, day 11 post infection): +34%
Percent body weight change ([4]; orally 100 mg/kg/day, day 13 post infection): +44%
Average lifetime (days) ([4]; orally 100 mg/kg/day): 10.4 (2-7 d., 1-9 d., 1-10 d) days
Death rate (%) ([4]; orally 100 mg/kg/day): 50%
Percent death protection (%) ([4]; orally 100 mg/kg/day): 40%
Survival (survivors/total) ([4]; orally 100 mg/kg/day): 5/10
Percent body weight change ([4]; orally 200 mg/kg/day, day 1 post infection): +15%
Percent body weight change ([4]; orally 200 mg/kg/day, day 2 post infection): +20%
Percent body weight change ([4]; orally 200 mg/kg/day, day 3 post infection): +23%
Percent body weight change ([4]; orally 200 mg/kg/day, day 4 post infection): +25%
Percent body weight change ([4]; orally 200 mg/kg/day, day 5 post infection): +24%
Percent body weight change ([4]; orally 200 mg/kg/day, day 7 post infection): +22%
Percent body weight change ([4]; orally 200 mg/kg/day, day 9 post infection): +25%
Percent body weight change ([4]; orally 200 mg/kg/day, day 11 post infection): +45%
Percent body weight change ([4]; orally 200 mg/kg/day, day 13 post infection): +57%
Average lifetime (days) ([4]; orally 200 mg/kg/day): 13.0 (1-7 d., 1-10 d., 1-11 d) days
Death rate (%) ([4]; orally 200 mg/kg/day): 30%
Percent death protection (%) ([4]; orally 200 mg/kg/day): 60%
Survival (survivors/total) ([4]; orally 200 mg/kg/day): 7/10
Glucose: number of animals with values going beyond the limits ([5]; 3 mg/kg): 0
Leukocytes: number of animals with values going beyond the limits ([5]; 3 mg/kg): 3
Protein: number of animals with values going beyond the limits ([5]; 9 mg/kg): 3
Bilirubin: number of animals with values going beyond the limits ([5]; 20 mg/kg): 0
Erythrocytes: number of animals with values going beyond the limits ([5]; 20 mg/kg): 5
Glucose: number of animals with values going beyond the limits ([5]; 20 mg/kg): 0
Nitrites: number of animals with values going beyond the limits ([5]; 20 mg/kg): 1
